Assay: Human HepG2 cell viability assay in 384 well format
Assay type: toxicity, cell-based
Set-up: dose 125 nL, time 70.5 hour; concentration not given beside the values
Conditions: HepG2 cells, read-out: Inhibition

| SMILES | cytotoxicity at 70.5 h [%] |
| --- | --- |
| CCCc1noc(C2CCCCN2C(=O)C2CCCC2)n1 (centres undefined) | 32.2 |
| c1ccc2c(N3CCSCC3)cnnc2c1 | -3.97 |
| CC1(C)CC(N2Cc3nc(N4CCCC4)ncc3C2=O)CC(C)(C)N1 | -13.5 |
| CCS(=O)(=O)N1CCCCC1c1nc(CC(C)C)no1 (centres undefined) | -8.14 |
| CCc1noc(C2CCCCN2C(=O)c2sccc2C)n1 (centres undefined) | 12.2 |
| CCCc1noc(C2CCN(C(=O)CCn3nc(C)cc3C)CC2)n1 | -7 |
| Cc1nn(C)c2cn(CC(=O)NC3CCSCC3)nc12 | -0.476 |
| COCCNC(=O)Cn1cc2c(n1)c(C)nn2C | -9.77 |
| Cc1cc2[nH]c(O)nc2cc1NCc1ccccc1 | -12.7 |
| CC1CCC(N2Cc3nc(N)ncc3C2=O)CC1 (centres undefined) | -12.4 |
| CCc1noc(C2CCCCN2C(=O)c2cc(C)oc2C)n1 (centres undefined) | 11.6 |
| Cc1ccc(CN(C)CC2(O)CCCN(C)C2)o1 (centres undefined) | -2.94 |
| CCn1nc(C)c2nn(CC(=O)NC3CCSCC3)cc21 | 6.6 |
| Cc1nc2[nH]cnc(Nc3ccn(C)n3)c-2n1 | -4.89 |
| Cn1cc(N2Cc3nc(N4CCOCC4)ncc3C2=O)cn1 | -6.6 |
| CCn1cc(N2Cc3nc(N4CCCC4)ncc3C2=O)cn1 | 0.0553 |
| O=C(NCCCn1cccn1)c1nnc2ccccc2n1 | 2.8 |
| CCn1nc(C)c(CNC(=O)c2nnc3ccc(OC)cc3n2)c1C | -3.67 |
| COc1ccc2nnc(C(=O)NCC3CCCC3)nc2c1 | -4.54 |
| C=CNC(=O)c1nnc2ccc(N3CCOCC3)cc2n1 | -10.8 |
| CN(C)c1ncc2c(n1)CN(C1CC(C)(C)NC(C)(C)C1)C2=O | -6.77 |
| CC1CCN(c2ncc3c(n2)CN(Cc2cccc(F)c2)C3=O)CC1 | -0.149 |
| CCn1nc(C)c(NC(=O)c2cc(NC(=O)C3CC3)n(C)n2)c1C | -5.29 |
| Cc1ccc(CNC(=O)c2cc(NC(=O)C3CC3)n(C)n2)o1 | -7.15 |

| SMILES | cytotoxicity at 70.5 h [%] |
| --- | --- |
| CCn1nccc1CNc1nc(N)nc2c1nc(C)n2C | 6.56 |
| Cc1nn(C)c2cn(C(C)C(=O)NCc3ccccn3)nc12 (centres undefined) | -11.2 |
| CC1CCN(C(=O)c2cc(NC(=O)c3ccccc3)n(C)n2)CC1 | -14.1 |
| Cn1nc(C(=O)N2CCCCCC2)cc1NC(=O)c1ccccc1 | -9.93 |
| CC(=O)OCc1ccc(CN2CCCCCC2c2cc(C)no2)o1 (centres undefined) | 24.7 |
| Cn1cccc1C(=O)N1CCCCC1c1ccn2ccnc2n1 (centres undefined) | -1.33 |
| CCc1noc(CCC(=O)N[C@@H]2CC[C@@H](n3ccnc3C)[C@@H]2O)n1 | -1.14 |
| CCc1noc(CCC(=O)N[C@@H]2CC[C@@H](n3ccnc3)[C@@H]2O)n1 | -8.61 |
| COc1ccccc1Oc1cncc(C2CCCN(CC(N)=O)C2)n1 (centres undefined) | 11.9 |
| CC1(C2CCN(CC(N)=O)CC2)CN(Cc2ccccc2)C(=O)CO1 (centres undefined) | -6.63 |
| CNC(=O)CN1CCC2(CC1)C[C@@H](O)[C@H](c1ccccc1)NC2=O | -4.55 |
| CC(C)N1CCC2(CC1)C[C@@H](O)[C@H](c1ccccc1)NC2=O | 9.43 |
| C[C@]1(O)CCN(Cc2ncccc2F)C[C@@H]1Oc1cccc(F)c1 | -3.05 |
| O[C@@H]1CN(Cc2cnccn2)C[C@H]1Oc1ccccc1 | -6.26 |
| Cc1nccc(C2CCCCN2Cc2ccccc2)n1 (centres undefined) | -5 |
| CNC(=O)c1cn[nH]c1C1CCN(Cc2ccccc2OC)C1 (centres undefined) | -8.12 |
| Cc1noc(C)c1-c1cccc(C2CCCNC2)n1 (centres undefined) | 2.18 |
| Oc1nc(N2CCCC2)nc2c1CCN(Cc1ccsc1)CC2 | -8.09 |
| Cn1cc(C(=O)N2CCCC(Cc3cncc4ccccc34)C2)cn1 (centres undefined) | -1.78 |
| Cc1cc(C)nc(C2CCN(C(=O)CCn3nnc4ccccc43)C2)n1 (centres undefined) | -6.12 |
| CCCn1nccc1-c1cc(C2CCN(S(C)(=O)=O)CC2)ccn1 | -6.09 |
| Cc1noc(C)c1-c1cc(C2CCNCC2)ccn1 | 3.08 |
| NC(=O)c1cc2c(nc1N)CCN(C(=O)C1CCCCC1)C2 | 7.07 |
| CCc1nccn1-c1nccnc1C1CCN(C(=O)COC)CC1 | 14.8 |

| SMILES | cytotoxicity at 70.5 h [%] |
| --- | --- |
| Cc1cc(N)nc(C2(C)CCCN2C(=O)Cc2ccc(F)cc2)n1 (centres undefined) | -8.7 |
| CCC(=O)N1CCC(c2nc3c(c(NC)n2)CN(C)CC3)C1 (centres undefined) | -9.93 |
| Cc1ncc(CN2CCOC(c3ccc(-c4ccccc4F)cn3)C2)s1 (centres undefined) | 49.2 |
| Cc1noc(C)c1-c1ccc(C2CCCN2C(=O)c2ccncn2)nc1 (centres undefined) | 27.1 |
| Cc1cccnc1Nc1nccc(C2CN(CC(N)=O)C2)n1 | -3.23 |
| NC(=O)CN1CCCC(Cc2ccc(N3CCOCC3)nn2)C1 (centres undefined) | -0.993 |
| Cc1cccc(C2CCN(S(=O)(=O)c3cn(C)cn3)CC2)n1 | -8.21 |
| CN(C)C(=O)CN1CCCC(Cc2ccc(N3CCCC3)nn2)C1 (centres undefined) | -9.12 |
| COCCn1cnnc1C1CCCN(C(C)C)C1 (centres undefined) | 17.1 |
| c1ccc(N2CCOC(Cc3cccnc3)C2)cc1 (centres undefined) | -7.14 |
| Cc1cc(N2CCCC2c2nc(C)cc(CCC(=O)O)n2)ncn1 (centres undefined) | -9.37 |
| Cc1ccnc(C2CCN(S(=O)(=O)c3cn(C)cn3)CC2)n1 | -9.62 |
| CN(C)C(=O)c1cn[nH]c1C1(C)CCCN(Cc2ccccn2)C1 (centres undefined) | -1.05 |
| Nc1nccnc1C1CN(C(=O)c2ccc3c(c2)OCO3)CCO1 (centres undefined) | -13.9 |
| O=C(O)COCC(=O)NC1CC2(CCCCC2)Oc2ccccc21 (centres undefined) | 18.3 |
| Cc1noc(C)c1-c1nc(N(C)C)ncc1-c1cnccn1 | -5.02 |
| Cc1noc(C)c1-c1nc(NCCN(C)C)ncc1-c1cnccn1 | -6.59 |
| c1cncc(CC2CN(c3cccnc3)CCO2)c1 (centres undefined) | -6.99 |
| CN1CCN(C(=O)C2CCN(c3cccnn3)C2)CC1 (centres undefined) | -6.3 |
| CC(=O)N1CCN(C(=O)C2CCN(c3cccnn3)C2)CC1 (centres undefined) | -0.877 |
| CNC(=O)c1ccc(C2CCCN(C(=O)c3sc(C)nc3C)C2)nc1 (centres undefined) | 2.08 |
| CC(=O)N1CCc2nc(C3CCN(c4ncccn4)C3)ncc2C1 (centres undefined) | -0.395 |
| CCCc1ncc(CNC2(c3ccc(Cl)cc3)CC2)cn1 | -4.1 |
| CCc1ccccc1Nc1noc2c1CN(C(=O)CNC(C)=O)CC2 | 6.37 |

| SMILES | cytotoxicity at 70.5 h [%] |
| --- | --- |
| Cc1nc(C2CCCN2C(=O)Cc2ccc3c(c2)OCO3)nc(O)c1C (centres undefined) | -5.28 |
| CCN(Cc1nc(-c2ccco2)no1)Cc1cccc2c1OCO2 | -3.24 |
| COC(C)c1cccc(NCc2cccc(O)c2)c1 (centres undefined) | -4 |
| O=C(c1ccccc1F)N(CCCO)S(=O)(=O)c1cccs1 | -9.23 |
| Cc1cc(C)n(CC2CCCN2Cc2ccc(F)cc2C#N)n1 (centres undefined) | -4.46 |
| Cc1ccc(N2CCC(NC(C)c3cccs3)CC2)nc1 (centres undefined) | -2.5 |
| CC(Cc1ccco1)NC(=O)NCc1ncnn1C (centres undefined) | 3.51 |
| COc1cc(CNc2nc(C3CC3)no2)cc(OC)c1OC | 6.45 |
| CCc1noc(CN2CCN(C(=O)Cc3ccc(F)cc3)CC2)n1 | -5.71 |
| Cn1c(CS(=O)(=O)Cc2cccc(Cl)c2)cc(=O)n(C)c1=O | -4.54 |
| COc1cc(CO)ccc1OCc1nc(C2CC2)no1 | -7.52 |
| Cc1noc(C2CCCN(C(=O)c3cc(Cl)c(Cl)n3C)C2)n1 (centres undefined) | -6.05 |
| CCn1cnnc1CNC(=O)NCC(O)c1ccc(OC)cc1 (centres undefined) | -4.35 |
| Cc1noc(C2CCCN(C(=O)c3scnc3Cl)C2)n1 (centres undefined) | 13 |
| O=C(CCCc1nc2ccccc2[nH]1)N1CCCC1c1ccccn1 (centres undefined) | 0.793 |
| O=C(Cc1cccc(O)c1)NCCNc1nccc(C(F)(F)F)n1 | -7.29 |
| Cc1nc(CC(=O)NCCNc2nccc(C(F)(F)F)n2)cs1 | -6.39 |
| CC(C)(C)n1cc(C#N)cc1NC(=O)CCNC(=O)c1ccco1 | 11.3 |
| CC(C)COc1cncc(NCCc2nnc3ccccn23)n1 | -4.15 |
| CN(C)c1ncc(NC(=O)c2cccc(Nc3cnn(C)c3)c2)cn1 | 2.52 |
| COc1cccc(C(CO)NC(=O)Cc2cccc(C)c2)c1 (centres undefined) | -4.94 |
| COc1ccncc1NCc1cscn1 | -0.709 |
| Cc1noc(C2CCCN(C(=O)c3cccc(Cl)c3)C2)n1 (centres undefined) | -0.713 |
| O=c1cc(CN(CCO)C2CC2)nc2ccccn12 | -3.82 |

| SMILES | cytotoxicity at 70.5 h [%] |
| --- | --- |
| COc1ccc(CNc2nc(C3CC3)no2)cc1OC | -1.13 |
| CC(C)Cn1ccnc1CNC(=O)NC(C)(C)c1nccs1 | 19.7 |
| Cc1ccccc1C(C)NC(=O)CN1CCN(Cc2ccc(Cl)s2)CC1 (centres undefined) | 17 |
| COc1ccccc1C(C)NC(=O)N1CCN(Cc2ccc(Br)s2)CC1 (centres undefined) | 5.11 |
| COc1cc(OC)cc(-c2noc(CN)n2)c1 | 45.5 |
| Cc1cccc(NC(=O)CNC(=O)c2ccccc2F)c1 | 4.02 |
| CCOc1ccccc1NC(=O)NCc1ccoc1 | -1.18 |
| CN(c1ncccc1C#N)C1CCN(CCc2ccccn2)CC1 | 13.7 |
| CNS(=O)(=O)c1cccc(S(=O)(=O)Nc2ncc(C)s2)c1 | 3.06 |
| NC(=O)CS(=O)(=O)Cc1ccc(OCc2ccc(F)cc2)cc1 | -2.96 |
| CS(=O)(=O)Cc1ccc(OCc2ccc(F)cc2)cc1 | 19.8 |
| Cc1ccc(CC(=O)NCC(O)c2cccc(C(F)(F)F)c2)cn1 (centres undefined) | -0.0497 |
| O=C(CC1CCCCC1)N1CCC(O)(C(F)(F)F)C1 (centres undefined) | 1.99 |
| CN(C)Cc1ccc(C(N)=O)cc1NC(=O)c1cccc(C#N)c1 | -4.53 |
| CN(C)C(=O)Cc1ccc(NCc2nccn2C)cc1 | -2.12 |
| O=C(NCc1cc(F)ccc1F)Nc1ccn(CC(F)F)n1 | 0.0811 |
| CCCn1cnc(S(=O)(=O)Nc2cccnc2-n2cccn2)c1 | 19.8 |
| NC(=O)c1ccc(C2CCCNC2)nc1 (centres undefined) | -4.69 |
| Cc1ccc(-c2ccc(CC3NCCN(C)C3=O)cc2)cc1 (centres undefined) | 20.9 |
| c1cn(-c2cnc(C3CCCNC3)cn2)cn1 (centres undefined) | 22.8 |
| CN1CCNC(Cc2ccc(-c3ccncc3)cc2)C1=O (centres undefined) | -5.04 |
| c1cn(-c2cnc(C3CCNCC3)cn2)cn1 | -10.7 |
| O=C(CN1CCC(c2cc(=O)n3c(n2)CCCCC3)C1)N1CCCCC1 (centres undefined) | -8.93 |

From ChEMBL document CHEMBL3507680, “University of Dundee, Gates Library screen for HepG2 cell viability”
